In ChEMBL document CHEMBL1147316, “Turbinaric acid, a cytotoxic secosqualene carboxylic acid from the brown alga Turbinaria ornata” (J Nat Prod, 1989):
Calls of active or inactive are those of the source. The calls are words filed in the database; no cut-off is given here.

Experiments:
Cancer cell lines = assay: Cytotoxicity against human colon cancer cells at 12.5 ug/mL; format: functional, cell-based
Melanoma tumor cell line = assay: Cytotoxicity against mouse melanoma cells at 26.6 ug/mL; format: functional, cell-based

CC(C)=CCC/C(C)=C/CC/C(C)=C/CC/C=C(\C)CC/C=C(\C)CCC(=O)O
Activity (Cancer cell lines): Active | Activity (Melanoma tumor cell line): Active
